Results published in patent US5565478A (The United States of America as represented by the …, priority 1994, dated 1996).
Where two headings read alike, the source gives them in different places.

Columns and labels:
[1] = tested on: receptor-mediated calcium entry (RMCE) in platelets, endothelial cells and neutrophils; conditions: cited from earlier work
[2] = tested on: voltage-gated L-type calcium channels in vascular smooth muscle cells; conditions: vascular smooth muscle cells under patch clamp; cited from earlier work
[3] = tested on: A2780 human ovarian cancer cells; experiment: Colony growth inhibition, 24 hr exposure; type: cell-based; conditions: colonies counted after 5 days
Method: (§1) A2780 human ovarian cancer cells are available from the ATCC. The cells were cultured in RPMI 1640 with 10% FCS under standard conditions. See the ATCC catalog. The culture media contained penicillin and streptomycin and in some instances, insulin.
(§2) Cells (500) were plated in 6-well plates and allowed to grow overnight. […] Controls were conducted by adding DMSO vehicle in complete media. […] After 5 days of incubation, the cells were washed once with PBS and then stained with methylene blue in 40% methanol for 20 min. The wells were rinsed gently with water and allowed to air dry. Colonies were counted by hand.

[4] = tested on: A2780-CP70 cells (cisplatin-resistant); experiment: Colony growth inhibition, 24 hr exposure; type: cell-based; conditions: Homo sapiens, colonies counted after 5 days
Method: (§3) A2780-CP70 are a selected subline of A2780 which are stably resistant to cisplatin in the absence of continuous exposure. These cells were obtained from Robert Ozols, MD at the Fox Chase Cancer Center, Philadelphia, Pa., USA. These cells were cultured as described above.
as §2

A2780 cells [5] = experiment: Colony assay, compound 1 followed by paclitaxel; type: cell-based, human; conditions: compound 1 (0, 1 and 5 μM) 24 hr, then compound 3 (paclitaxel, 0 to 0.01 μM) 24 hr
Method: as §1
(§4) Cells were incubated overnight in serum-containing medium, then washed once and treated with compound 1 (0, 1 and 5 μM). […] The resulting cells were washed once with PBS, treated with serum-containing media and incubated for 5 days. The cells were then fixed and stained with methylene blue in 40% methanol and the colonies were counted. FIGS. 2 and 3 show the results for the A2780 and A2780-CP70 cells, respectively. Data are presented as a percent of control (DMSO vehicle) growth.

A2780-CP70 cells [6] = experiment: Colony assay, compound 1 followed by paclitaxel; type: cell-based, human; conditions: compound 1 (0, 1 and 5 μM) 24 hr, then compound 3 (paclitaxel, 0 to 0.01 μM) 24 hr
Method: as §3, §4

A2780-CP70 cells [7] = experiment: Colony assay, paclitaxel followed by compound 1; type: cell-based, human; conditions: paclitaxel (0.003 μM) 24 hr, then compound 1 (0 to 10 μM); cisplatin-resistant A2780-CP70
Method: as §3
The cells were again washed with PBS and treated with compound 1 (0 to 10 μM) for 24 hr, washed again with PBS and incubated for 5 days in drug-free media. The resulting cells were fixed, stained and the colonies were counted. Data are presented in FIGS. 4 and 5 as a percentage of control growth (DMSO treatment only).

A2780 cells [8] = experiment: Monolayer assay, compound 1 followed by paclitaxel; type: cell-based, human; conditions: compound 1 (5 μM) 24 hr, then paclitaxel (0 to 0.007 μM) 24 hr
Method: as §1
(§5) For each of the cell types, 50,000 cells were plated per well in 24-well tissue culture plates. One mL of medium was added to each well and the cells were incubated overnight at 37° C. The media was carefully aspirated away and media (1 mL) containing compound 1 (5 μM) or DMSO vehicle control was added to each well. After incubating the cells for 24 hr at 37° C., the media from each well was carefully aspirated away and each well was washed twice with serum-free media. […] After the incubation, the media was aspirated away and each well was washed twice with serum-free media. Serum-containing media was then added to each well and all plates were incubated for 4 days at 37° C. At the end of 4 days, the media was aspirated off and wells were fixed and stained with crystal violet in methanol. The wells were air dried and eluted with sodium citrate and ethanol. The optical density (OD) was determined for each of the well eluates at 540 nm. The percent relative growth was calculated by dividing the mean OD of identically treated wells by the OD of the control and multiplying by 100.

A2780-CP70 cells [9] = experiment: Monolayer assay, compound 1 followed by paclitaxel; type: cell-based, human; conditions: compound 1 (5 μM) 24 hr, then paclitaxel (0 to 0.007 μM) 24 hr
Method: as §3, §5

[10] = tested on: MDA 231 human breast cancer cells; experiment: Monolayer assay, compound 1 followed by paclitaxel; type: cell-based; conditions: compound 1 (5 μM) 24 hr, then paclitaxel (0 to 0.007 μM) 24 hr; MDA 231 monolayer
Method: MDA-231 hormone-resistant human breast cancer cells from ATCC were cultured in DMEM with 10% FCS and penicillin/streptomycin, under standard conditions.
as §5

A2780 cells [11] = experiment: Colony assay, compound 1 in combination with carboplatin; type: cell-based, human
Method: as §1
(§6) Cells were incubated overnight in serum-containing medium, then washed once and treated with compound 1 (5 μM). After 24 hr, the cells were washed once with PBS and then treated with carboplatin (1 to ~200 μM) for an additional 24 hr. The resulting cells were washed once with PBS, treated with serum-containing media and incubated for 5 days. The cells were then fixed and stained with methylene blue in 40% methanol and the colonies were counted. […] Data are presented as a percent of control (DMSO vehicle) growth.

A2780-CP70 cells [12] = experiment: as above; type: cell-based, human
Method: as §3, §6

[13] = Toxicity of compound 1 in patients
[14] = Stability of compound 1 in PEG-400 solution; type: physicochemical; conditions: temperatures of up to 50° C.
Method: Compound 1 (NSC 609974) is available from the National Cancer Institute as a white powder. Preferably, it is dispensed as a 100 mg/mL solution in PEG-400. Compound 1 in PEG-400 solution is stable for at least 3 months at temperatures of up to 50° C. It is administered as a measured liquid dose daily for 8 days or more. It is recommended that patients take nothing by mouth for 3 hours prior to and 1 hour after taking the compound 1.

[15] = 100 mg/m^2/day
[16] = at least; fixed dose 100 mg/m^2/d, by the 8th day of administration; read-out: plasma levels in humans; cited from earlier work
[17] = tested on: nonvoltage-gated and voltage-gated calcium channels; conditions: cited from earlier work
[18] = both in vitro and in vivo; cited from earlier work
[19] = tested on: production of arachidonic acid; conditions: cited from earlier work
[20] = tested on: phosphorylation events which are associated with receptor activation; conditions: cited from earlier work
clinical = conditions: human, plasma, 100 mg/m^2
[21] = humans, 100 mg/m^2/d; cited from earlier work
microtubule = conditions: cited from earlier work
human tumors = conditions: clinical trials; cited from earlier work
[22] = cited from earlier work
calcium levels in cells = conditions: cited from earlier work
[23] = in vitro; cited from earlier work
[24] = tested on: paclitaxel-induced neutropenia; conditions: cited from earlier work
[25] = carboplatin first, then compound 1
[26] = compound 1 (5 μM) 24 hr, then carboplatin (1 to ~200 μM) 24 hr

## COc1ccc(CCCOC(Cn2ccnc2)c2ccc(OC)cc2)cc1 (stereo not drawn) [Compound 2]
[1]
  inhibition of RMCE: inhibits RMCE
[2]
  block of voltage-gated L-type calcium channels: blocks voltage-gated L-type calcium channels

## NC(=O)c1nnn(Cc2cc(Cl)c(C(=O)c3ccc(Cl)cc3)c(Cl)c2)c1N [Compound 1, 5-amino-1-(4-(4-chlorobenzoyl)-3,5-dichlorobenzyl)-1,2,3-triazole-4-carboxamide]
[3]
  IC50: 3 µM
[4]
  IC50: 9.5 µM
A2780 cells [5]
  combination effect on growth: supra-additive effect
A2780-CP70 cells [6]
  combination effect on growth: supra-additive effect
A2780-CP70 cells [7]
  combination effect on growth: additive effect
A2780 cells [8]
  combination effect on percent relative growth: supra-additive effect
A2780-CP70 cells [9]
  combination effect on percent relative growth: supra-additive effect
[10]
  combination effect on percent relative growth: supra-additive effect
A2780 cells [11]; [25]
  combination effect on growth, reversed sequence: sub-additive effect
A2780 cells [11]; [26]
  combination effect on growth: sub-additive effect
A2780-CP70 cells [12]; [25]
  combination effect on growth, reversed sequence: sub-additive effect
A2780-CP70 cells [12]; [26]
  combination effect on growth: sub-additive effect
[13]; human, in vivo
  common low-grade toxicities: nausea and emesis
  uncommon toxicities: mood changes (low-grade), peripheral neuropathy (mild to moderate) and neutropenia
[13]; patients, 100 mg/m^2/day
  toxicity at dosing level: no significant toxicity
[14]
  stability in PEG-400 solution: at least 3 months
[15]
  usual plasma levels, plateau: 3 to 4 µg/mL
[15]; read-out: usual plasma levels, plateau (molar)
  concentration: 5 to 10 µM
[16]
  concentration: 1 to 5 µM
[17]
  inhibition of calcium uptake: inhibitor of calcium uptake
[18]
  single agent activity: antiproliferative, anti-invasive, and anti-metastatic properties
[19]
  effect on production of arachidonic acid: alter production of arachidonic acid
[20]
  effect on phosphorylation events: inhibits phosphorylation events
clinical
  concentration at 192 h: 1 to 5 µM
[21]
  toxicity at fixed dose: no significant toxicity

## CC(=O)O[C@H]1C(=O)[C@@]2(C)[C@H]([C@H](OC(=O)c3ccccc3)[C@]3(O)C[C@H](OC(=O)[C@H](O)[C@@H](NC(=O)c4ccccc4)c4ccccc4)C(C)=C1C3(C)C)[C@]1(OC(C)=O)CO[C@@H]1C[C@@H]2O [Compound 3, Paclitaxel]
microtubule
  effect on microtubule polymerization: promotion of microtubule polymerization
Human tumors
  efficacy in human tumors: demonstrated efficacy in several human tumors
[22]; paclitaxel infusion over 3-24 hours every 21 days
  dose at which dose limiting toxicity of peripheral neuropathy has been seen: above 300 mg/m^2
[22]; patients
  toxicities of paclitaxel: nausea, emesis, diarrhea, neutropenia, thrombocytopenia, anemia, hair loss, myalgia, cardiac conduction abnormalities, hypersensitivity reactions, peripheral and autonomic neuropathy, mucositis

## CCC(C)n1ncn(-c2ccc(N3CCN(c4ccc(OCC5COC(Cn6cncn6)(c6ccc(Cl)cc6Cl)O5)cc4)CC3)cc2)c1=O (stereo not drawn) [itraconazole]
Calcium levels in cells
  effect on calcium levels in cells: effect calcium levels in cells

## CC(=O)N1CCN(c2ccc(OCC3COC(Cn4ccnc4)(c4ccc(Cl)cc4Cl)O3)cc2)CC1 (stereo not drawn) [ketoconazole]
[23]
  effect on activity of paclitaxel: augment the activity of paclitaxel
Calcium levels in cells
  effect on calcium levels in cells: effect calcium levels in cells

## Clc1ccc(COC(Cn2ccnc2)c2ccc(Cl)cc2Cl)c(Cl)c1 (stereo not drawn) [miconazole]
Calcium levels in cells
  effect on calcium levels in cells: effect calcium levels in cells

## OC(Cn1cncn1)(Cn1cncn1)c1ccc(F)cc1F [fluconazole]
Calcium levels in cells
  effect on calcium levels in cells: effect calcium levels in cells

## Clc1ccc(COC(Cn2ccnc2)c2ccc(Cl)cc2Cl)cc1 (stereo not drawn) [econazole]
Calcium levels in cells
  effect on calcium levels in cells: effect calcium levels in cells

B1: G-CSF: cytokine which blunts paclitaxel-induced neutropenia; recombinant cytokine from Amgen (protein, UniProt P09919 31-207, looked up)
Granulocyte …: TPLGPASSLPQSFLLKCLEQVRKIQGDGAALQEKLVSECATYKLCHPEELVLLGHSLGIPWAPLSSCPSQALQLAGCLSQLHSGLFLYQGLLQALEGISPELGPTLDTLQLDVADFATTIWQQMEELGMAPALQPTQGAMPAFASAFQRRAGGVLVASHLQSFLEVSYRVLRHLAQP
modifications: filgrastim
notes: recombinant cytokine from Amgen
[24]; G-CSF escalation up to 30 μg/kg/d, paclitaxel alone or with compound 1
  maintenance of paclitaxel dose: associated with maintenance of the dose of paclitaxel
[24]; in vivo
  effect on paclitaxel-induced neutropenia: blunts paclitaxel-induced neutropenia
